Measurements taken from PubChem BioAssay (NCI).
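The compound was tested at five concentrations on cells cultured in 96-well plates, with a 48-hour exposure period. GI50: concentration for 50% inhibition of growth. Definition used: TGI = concentration required for complete inhibition of growth.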

How the values were obtained:
Experiment in all cases: inhibition of tumour cell growth, NCI panel, 48 h; in the data active means GI50 below about 0.43 µM; inactive means the rest
[1] = tested on: U251 CNS
[2] = tested on: HL-60(TB) leukemia
[3] = tested on: DU-145 prostate
[4] = tested on: SR leukemia
[5] = tested on: MDA-MB-231 breast
[6] = tested on: NCI-H226 lung
[7] = tested on: LOX IMVI melanoma
[8] = tested on: RXF 393 renal
[9] = tested on: A549 NSCLC
[10] = tested on: CCRF-CEM leukemia
[11] = tested on: SNB-75 CNS
[12] = tested on: SF-295 CNS
[13] = tested on: HOP-62 NSCLC
[14] = tested on: MCF7 breast
[15] = tested on: SK-MEL-5 melanoma
[16] = tested on: SF-268 CNS
[17] = tested on: 786-0 renal
[18] = tested on: KM12 colon
[19] = tested on: HCT-116 colon
[20] = tested on: T-47D breast
[21] = tested on: SNB-19 CNS
[22] = tested on: NCI-H23 lung
[23] = tested on: M14 melanoma
[24] = tested on: UO-31 renal
[25] = tested on: COLO 205 colon
[26] = tested on: OVCAR-3 ovarian
[27] = tested on: HT29 colon
[28] = tested on: SK-OV-3 ovarian
[29] = tested on: A498 renal
[30] = tested on: MALME-3M melanoma
[31] = tested on: K-562 leukemia
[32] = tested on: SN12C renal
[33] = tested on: PC-3 prostate
[34] = tested on: UACC-257 melanoma
[35] = tested on: MOLT-4 leukemia
[36] = tested on: CAKI-1 renal
[37] = tested on: SK-MEL-28 melanoma
[38] = tested on: UACC-62 melanoma
[39] = tested on: HS 578T breast
[40] = tested on: NCI-H522 lung
[41] = tested on: OVCAR-5 ovarian
[42] = tested on: HCT-15 colon
[43] = tested on: NCI/ADR-RES ovarian
[44] = tested on: RPMI-8226 leukemia
[45] = tested on: NCI-H460 lung
[46] = tested on: TK-10 renal
[47] = tested on: HOP-92 NSCLC
[48] = tested on: IGROV1 ovarian
[49] = tested on: SW-620 colon
[50] = tested on: SF-539 CNS
[51] = tested on: OVCAR-4 ovarian
[52] = tested on: OVCAR-8 ovarian
[53] = tested on: EKVX NSCLC
[54] = tested on: SK-MEL-2 melanoma
[55] = tested on: ACHN renal
[56] = tested on: HCC-2998 colon
[57] = tested on: BT-549 breast

COc1ccc(N(C)c2nc(Cl)nc3cnn(C)c23)cc1
> 59700 nM: TGI [56]
> 95500 nM: TGI [24]
> 100000 nM: TGI [1] | TGI [3] | TGI [4] | TGI [5] | TGI [6] | TGI [7] | TGI [8] | TGI [9] | TGI [10] | TGI [11] | TGI [12] | TGI [13] | TGI [14] | TGI [16] | TGI [17] | TGI [18] | TGI [19] | TGI [20] | TGI [21] | TGI [22] | TGI [23] | TGI [26] | TGI [27] | TGI [28] | TGI [30] | TGI [31] | TGI [32] | TGI [33] | TGI [34] | TGI [35] | TGI [36] | TGI [37] | TGI [38] | TGI [39] | TGI [41] | TGI [42] | TGI [43] | TGI [44] | TGI [45] | TGI [46] | TGI [48] | TGI [49] | TGI [51] | TGI [52] | TGI [53] | TGI [54] | TGI [55]
87.4 nM: TGI [15]
178 nM: TGI [29]
7950 nM: TGI [47]
active: GI50 [1] < 10 nM | GI50 [2] < 10 nM | GI50 [3] 17.1 nM | GI50 [4] < 10 nM | GI50 [5] 26.2 nM | GI50 [6] < 10 nM | GI50 [7] < 11 nM | GI50 [8] < 10 nM | GI50 [9] < 11.7 nM | GI50 [10] < 14.6 nM | GI50 [11] < 10 nM | GI50 [12] < 10 nM | GI50 [13] < 11.8 nM | GI50 [14] < 10 nM | GI50 [15] < 10 nM | GI50 [16] < 11.2 nM | GI50 [17] < 10 nM | GI50 [18] < 10 nM | GI50 [19] < 10 nM | GI50 [20] < 10 nM | GI50 [21] < 13.1 nM | GI50 [22] < 25.1 nM | GI50 [23] < 10 nM | GI50 [24] < 38.3 nM | GI50 [25] < 10 nM | GI50 [26] < 10 nM | GI50 [27] < 10 nM | GI50 [28] < 10 nM | GI50 [29] < 10 nM | GI50 [31] < 10 nM | GI50 [32] < 20.3 nM | GI50 [33] < 10 nM | GI50 [35] 19.3 nM | GI50 [36] < 10 nM | GI50 [38] < 10 nM | GI50 [39] < 10 nM | GI50 [40] < 10 nM | GI50 [41] 37.9 nM | GI50 [42] < 10 nM | GI50 [43] < 10 nM | GI50 [44] < 17.7 nM | GI50 [45] < 10 nM | GI50 [47] < 10 nM | GI50 [48] < 18.9 nM | GI50 [49] < 10 nM | GI50 [50] < 10 nM | GI50 [51] 79.5 nM | GI50 [52] 19.2 nM | GI50 [53] < 17.8 nM | GI50 [54] < 10 nM | GI50 [55] < 14.5 nM | GI50 [56] 28.5 nM | GI50 [57] 20.7 nM
< 22.2 nM: TGI [2]
> 71600 nM: TGI [57]
inactive: GI50 [34] 29800 nM | GI50 [37] 12800 nM | GI50 [46] > 68600 nM
58 nM: TGI [25]
